In brackets after ≈: the same amount, converted by molar mass.

Broadly, the solubility (kinetic) is the concentration staying in solution when a stock, usually in DMSO, is diluted into the medium.

The conditions of the series: buffer; pH 7.4; 200.0 µM.
In the case of `CCN1CCCC1CNS(=O)(=O)c1ccc(F)c(Cl)c1` (stereo not drawn), the solubility (kinetic) was determined as 44.2 µg/mL (≈ 138 µM).
`CCCCOCCCNC(=O)N[C@H](C(=O)OC)C(C)CC` (stereo partly drawn) gave a solubility (kinetic) greater than 45.4 µg/mL.
Regarding `O=C(NC12CC3CC(CC(C3)C1)C2)c1ccco1`, the solubility (kinetic) was found to be 36.5 µg/mL (≈ 149 µM).
Turning to `COC(=O)CSc1nc(N2CCOCC2)c2c(c1C#N)CCCC2`, the solubility (kinetic) was determined as 25.6 µg/mL (≈ 73.7 µM).
As for `CCc1cccc(C)c1N=Cc1c(O)c2ccccc2oc1=O`, the figure is 0.9 µg/mL (≈ 2.93 µM); as for `Cc1ccc(OCCCCCN2CCOCC2)cc1`, 32.3 µg/mL (≈ 123 µM).
The molecule `O=C(Nc1nc(-c2ccc(Br)cc2)cs1)c1cccnc1` came in with a kinetic solubility of less than 0.3 µg/mL.
The same measure for `C=CCOC(=O)/C(=C/c1cccnc1)NC(=O)c1ccccc1`: 43.4 µg/mL (≈ 141 µM); for `Cc1ccccc1N1C(=O)CC(c2c[nH]c3ccccc23)C1=O` (stereo not drawn): greater than 45.7 µg/mL; for `CCNC(=O)C1CCCN1S(=O)(=O)c1ccc2ccccc2c1` (stereo not drawn): greater than 49.9 µg/mL.
On to `Cc1ccc(C)c(C(=O)CN2C(=O)NC3(CCCCCCC3)C2=O)c1`, for which the solubility (kinetic) amounted to 2.6 µg/mL (≈ 7.59 µM).
In turn, `FCCCOc1ccc(CN2CCN(c3ccccc3F)CC2)cc1` returned a kinetic solubility of 19.5 µg/mL (≈ 56.3 µM).
The same measure for `O=C(NN=C1CCCCCCC1)c1ccc(F)cc1`: greater than 39.3 µg/mL.
As for `C=CC#CC1(O)CC(C)N(C)CC1C` (stereo not drawn), the figure is greater than 29 µg/mL.
The same measure for `O=C(Nc1ccc2ccccc2c1)C(=O)C1C(=O)Nc2ccccc21` (stereo not drawn): 3.7 µg/mL (≈ 11.2 µM); for `Cc1cc(C)c(OCCn2ccnc2)c(C)c1`: 31.5 µg/mL (≈ 137 µM); for `CN(C)c1cccc(N(C)C)c1CNC(=O)NC(=O)c1c(F)cccc1F`: 0.3 µg/mL (≈ 0.797 µM).
As to `COc1ccccc1C(=O)N(C1=NC(C)CS1)c1ccc(Cl)cc1` (stereo not drawn), the solubility (kinetic) is 8.1 µg/mL (≈ 22.4 µM).
Molecule `Cc1nc2ccc([N+](=O)[O-])cc2c(=O)n1Cc1ccc([N+](=O)[O-])cc1` returned a kinetic solubility of 2.5 µg/mL (≈ 7.35 µM). Against the preceding molecule, the solubility kinetic is about 3.2-fold lower.
The molecule `O=C(Nc1ccc2c(c1)CCC2)c1ccc(Br)s1` registered a solubility (kinetic) of less than 0.7 µg/mL.
In turn, `COc1cccc(C(=O)N2CCOCC2)c1OC` displayed a kinetic solubility greater than 37.7 µg/mL.
The same measure for `Cc1ccc(C(C)NC(=O)c2cccnc2)cc1` (stereo not drawn): 33.5 µg/mL (≈ 139 µM); for `O=c1c2sccc2[nH]c(=S)n1-c1ccccc1`: 38.5 µg/mL (≈ 148 µM); for `Cc1ccccc1CN(C)C(=O)COC(=O)c1ccc2[nH]c(C)c(C)c2c1`: 2.1 µg/mL (≈ 5.76 µM).
In the case of `O=C(NCc1cccnc1)c1ccc(Br)s1`, the solubility (kinetic) is greater than 44.6 µg/mL.
In the case of `S=C(NCc1ccco1)N1CCC(c2nc3ccccc3o2)CC1`, the kinetic solubility came to 11.3 µg/mL (≈ 33.1 µM).
`COc1cccc(OC)c1C(=O)Nc1nc(-c2ccccc2)cs1` returned a kinetic solubility of 1.6 µg/mL (≈ 4.7 µM).
The same measure for `CSc1ccc(/C=C/C(=O)OCC(=O)N2CCCCCC2)cc1`: 3.8 µg/mL (≈ 11.4 µM); for `COc1ccc(-c2csc(-c3cccs3)n2)c(OC)c1`: 0.8 µg/mL (≈ 2.64 µM); for `Cc1cc(=O)[nH]c(-c2ccccc2OC(F)(F)F)n1`: greater than 40.5 µg/mL.
As for `Nc1ccc(-c2nc3ncccc3o2)cc1`, the figure is greater than 31.7 µg/mL.
In the case of `COc1ccc(S(=O)(=O)n2c([N+](=O)[O-])cnc2C)c(C)c1C`, the kinetic solubility worked out at 45.2 µg/mL (≈ 139 µM).
As for `CCC(NC(=O)c1ccccc1Br)c1ccccc1` (stereo not drawn), the figure is greater than 47.7 µg/mL.
Turning to `Cc1ccc(C)c(NS(=O)(=O)c2csc(C(N)=O)c2)c1`, the solubility (kinetic) came to 36.3 µg/mL (≈ 117 µM).
`C=Cn1ccnc1P(=S)(c1ccc(Cl)cc1)c1nccn1C=C` had a solubility (kinetic) of 46.9 µg/mL (≈ 130 µM).
`O=C(NCc1ccc(F)cc1)c1cnccn1` came in with a solubility (kinetic) greater than 34.7 µg/mL.
As for `CCCc1nnc(SCC(=O)Nc2nccs2)o1`, the figure is greater than 42.7 µg/mL; as for `NC(=O)COC(=O)c1ccc(-c2ccccc2)cc1`, 19.1 µg/mL (≈ 74.8 µM).
As for `O=C1CN(C(=O)CNC(=O)c2ccc(Cl)cc2Cl)CCN1`, the kinetic solubility is 47.4 µg/mL (≈ 144 µM).
The same measure for `Cc1[nH]c(=O)c(C#N)cc1-c1csc(-c2ccccc2)n1`: 0.7 µg/mL (≈ 2.39 µM).
`N#Cc1ccccc1S(=O)(=O)N1CCN(C(=O)C2CC(=O)N(c3ccc4c(c3)OCCO4)C2)CC1` (stereo not drawn) had a solubility (kinetic) of 68.6 µg/mL (≈ 138 µM).
`C#CCNC(=O)c1ccc(OCc2ccccc2)cc1Cl` yielded a solubility (kinetic) of 41.7 µg/mL (≈ 139 µM).
As for `CC1=CCC(C(=O)O)C(C(=O)Nc2cccnc2)C1` (stereo not drawn), the kinetic solubility worked out at 33.3 µg/mL (≈ 128 µM). The solubility kinetic values of the last two molecules are within 1.5-fold of each other.
Regarding `Cc1ccc(NC(=O)COC(=O)CNC(=O)C2CCCCC2)cc1S(=O)(=O)N(C)C`, the solubility (kinetic) was greater than 65.9 µg/mL.
`CCc1nc2ccccc2c(=O)n1-c1ccccc1OC` yielded a solubility (kinetic) greater than 42 µg/mL.
For the molecule `O=C(CN1C(=O)NC2(CCOc3ccccc32)C1=O)NCc1ccccc1` (stereo not drawn), the solubility (kinetic) was greater than 54.8 µg/mL.
As to `O=C(NCC(=O)N1CCN(c2ccc([N+](=O)[O-])cc2)CC1)c1ccco1`, the kinetic solubility stood at 11.4 µg/mL (≈ 31.8 µM).
The same measure for `CC(NC(=O)COC(=O)CCC(=O)c1ccc(Cl)cc1)c1ccccc1` (stereo not drawn): greater than 56.1 µg/mL.
Regarding `CC1CN(C(=O)COC(=O)c2ccc(O)cc2)CC(C)O1` (stereo not drawn), the kinetic solubility stood at 43.8 µg/mL (≈ 149 µM).
The same measure for `CC(C)COc1cccc(C(=O)N(C)CC(=O)Nc2cccc3ccccc23)c1`: 33.6 µg/mL (≈ 86 µM); for `CCc1ccc(CNc2ccc3c(c2)ncn3CC)cc1`: 37.3 µg/mL (≈ 134 µM); for `CC(C)[C@H](NC(=O)c1ccccc1Cl)C(=O)OCC(=O)N1CCCCC1`: greater than 57.1 µg/mL.
The same measure for `OCCCc1cn(-c2ccccc2)c2ccccc12`: 22.1 µg/mL (≈ 87.9 µM); for `COc1ccc(N(CC(=O)NC2CCS(=O)(=O)C2)S(=O)(=O)c2cc(C)ccc2C)cc1` (stereo not drawn): 66.3 µg/mL (≈ 142 µM).
In turn, `COc1ccc(CNC(=O)COC(=O)[C@@H]2CCCN2C(=O)c2cccs2)cc1` came in with a kinetic solubility greater than 60.4 µg/mL.
As for `O=C(Cc1ccc(Cl)cc1)NC1CCS(=O)(=O)C1` (stereo not drawn), the figure is greater than 43.2 µg/mL.
As for `Cc1cccc(-c2nc3cc([N+](=O)[O-])ccc3o2)c1`, the figure is less than 0.3 µg/mL.
The same measure for `CC1C(=O)N2CCCc3cc(NC(=O)C(=O)NCc4ccccn4)cc1c32` (stereo not drawn): greater than 54.7 µg/mL; for `O=C(O)CCCCCNC(=O)/C(=C\c1ccco1)NC(=O)c1ccco1`: 44.3 µg/mL (≈ 123 µM); for `CCOC(=O)c1ccc(NC(=O)N2CCOCC2)cc1`: greater than 41.7 µg/mL.
`Cc1ccc(NC(=O)N2CCN(c3ncccc3C(F)(F)F)CC2)cc1` came in with a kinetic solubility of 1.5 µg/mL (≈ 4.12 µM).
The same measure for `Cn1c(C(=O)N[C@@H](Cc2ccccc2)C(=O)O)cc2cc(Cl)ccc21`: greater than 53.5 µg/mL; for `CCS(=O)(=O)c1ncc(Cl)c(C(=O)Nc2ccccc2OC)n1`: 0.3 µg/mL (≈ 0.843 µM).
`CSc1ncccc1C(=O)NC(C)CCc1ccccc1` (stereo not drawn) yielded a solubility (kinetic) of 11.9 µg/mL (≈ 39.6 µM). This solubility kinetic is about 40-fold higher than that of the molecule before.
`CCCCn1c(O)c(C=NCc2ccc3c(c2)OCO3)c(=O)[nH]c1=O` had a kinetic solubility of 6.8 µg/mL (≈ 19.7 µM). Against the preceding molecule, the solubility kinetic is about 1.8-fold lower.
As for `c1ccc(CNc2nc(-c3cccnc3)cs2)cc1`, the figure is 22.4 µg/mL (≈ 83.8 µM); as for `CN(Cc1ccc(F)cc1)C(=O)c1ccc2c(c1)NC(=O)CS2`, greater than 49.6 µg/mL.
`CCOC(=O)c1ccc(NS(=O)(=O)c2ccc3oc(=O)[nH]c3c2)cc1` gave a solubility (kinetic) greater than 54.4 µg/mL.
Regarding `CC(C)(C)NC(=O)C1CCN(C(=O)c2ccco2)CC1`, the solubility (kinetic) came to 41.2 µg/mL (≈ 148 µM).
In turn, `COc1ccc(-c2cc(C(=O)N3CCCCC3)c3ccccc3n2)cc1` returned a solubility (kinetic) of 33.5 µg/mL (≈ 96.7 µM).
Consider `Cc1cc(NC(=O)C2CC(=O)N(c3ccccc3Cl)C2)no1` (stereo not drawn), for which the kinetic solubility was greater than 48 µg/mL.
The same measure for `CCOC(=O)C1CCCN(c2c(NCCc3ccccc3)c(=O)c2=O)C1` (stereo not drawn): 25.5 µg/mL (≈ 71.5 µM).
For the molecule `CC(=O)c1cc(F)ccc1OCC(=O)N1CCCc2ccccc21`, the solubility (kinetic) stood at 44.1 µg/mL (≈ 135 µM).

Source of the values: PubChem BioAssay AID1996.
